Columns and labels:
[1] = LNP size (average radius), Wyatt Plate Reader III; assay type: physicochemical; settings: LNP of ionizable lipid:DSPC:cholesterol:DMG-PEG 45:10:44:1 with Cas9 mRNA and sgRNA, 0.087 mg/ml each
Method: (§1) Lipid nanoparticles (LNPs) were generated by rapid mixing. A mixture containing ionizable lipid, DSPC, cholesterol, and DMG-PEG at a molar ratio of 45:10:44:1, respectively, in ethanol was mixed with an aqueous sample containing Cas9 mRNA and synthetic sgRNA in 100 mM sodium acetate. Molar fractions were maintained for each formulation while varying the ionizable lipid. After formulation, particles immediately neutralized by dilution into Phosphate Buffered Saline (PBS). LNP size was determined using a Wyatt Plate Reader III with default settings.

HEK293 FT cells = test: Cas9 mRNA/sgRNA LNP gene editing, amplicon sequencing indel percentage (CRISPR-DAV); assay type: cell-based; settings: LNP formulation dosed at 20 uL into 5,000 HEK293 FT cells, four day incubation
Method: as §1
(§2) Particles were functionally tested using amplicon sequencing. For testing, each formulation was dosed at 20 uL into 5,000 HEK293 FT or Jurkat cells. After a four day incubation cells were lysed and the locus of interested was amplified with PCR primers. These PCR products are then prepared for sequencing and sequenced on a MiSeq. The sequencing data is then processed and analyzed using CRISPR-DAV, which outputs indel percentages. (Table 1) For general reference, see Xuning Wang, Charles Tilford, Isaac Neuhaus, Gabe Mintier, Qi Guo, John N Feder, Stefan Kirov, CRISPR-DAV: CRISPR NGS data analysis and visualization pipeline, Bioinformatics, Volume 33, Issue 23, December 012017, Pages 3811-3812.

Jurkat cells = test: as above; assay type: cell-based; settings: LNP formulation dosed at 20 uL into 5,000 Jurkat cells, four day incubation
Method: as §1, §2

| Structure (SMILES) | average Radius (nm) rep1 [1] [nm] | average Radius (nm) rep2 [1] [nm] | Indel % rep1 HEK293 FT (HEK293 FT cells) [%] | Indel % rep2 Hek (HEK293 FT cells) [%] | Indel % rep1 Jurkat (Jurkat cells) [%] | Indel % rep2 Jurkat (Jurkat cells) [%] |
| --- | --- | --- | --- | --- | --- | --- |
| CCCCCC=CCC=CCCCCCCCC1OC(CCN(C)C)OC1CCCCCCCCCCCCCCCCC (stereo in doubt) [Lipid 10, (2-{4-[(8Z,11Z)-heptadeca-8,11-dien-1-yl]-5-heptadecyl-1,3-dioxolan-2-yl}ethyl)dimethylamine] | 177.3 | 129.475 | 51.22 | 63.9 | 1.75 | 1.04 |
| CCCCCCCC/C=C/CCCCCCCC1OC(CCN(C)C)OC1CCCCCCC/C=C/CCCCCCCC (stereo not drawn) [Lipid 2, (2-{4,5-Bis [(8E)-heptadec-8-en-1-yl]-1,3-dioxolan-2-yl}ethyl)dimethylamine] | 142.825 | 136.875 | 16.5 | 41.5 | 0.15 | 0.09 |
| CCCCCCCC/C=C\CCCCCCCC1OC(CCN(C)C)OC1CCCCCCC/C=C\CCCCCCCC (stereo not drawn) [Lipid 3, (2-{4,5-Bis [(8Z)-heptadec-8-en-1-yl]-1,3-dioxolan-2-yl}ethyl)dimethylamine] | 92.55 | 91.525 | 92.23 | 90.92 | 77.31 | 66.37 |
| CCCCC/C=C\C/C=C\CCCCCCCC1OC(CCN(C)C)OC1CCCCCCCCCCCCCCCCC (stereo not drawn) [Lipid 4, (2-{4-[(8Z,11Z)-heptadeca-8,11-dien-1-yl]-5-heptadecyl-1,3-dioxolan-2-yl}ethyl)dimethylamine] | 153.05 | 150.55 | 53.08 | 62.46 | 34.09 | 19.69 |
| CCCCC/C=C\C/C=C\CCCC1OC(CCN(C)C)OC1CCC/C=C\C/C=C\CCCCC (stereo not drawn) [Lipid 5, {2-[4,5-Bis-((4Z,7Z)-trideca-4,7-dienyl)-[1,3]dioxolan-2-yl]-ethyl}-dimethyl-amine] | 94.25 | 90.275 | 0.09 | 0.12 | 0.11 | 0.1 |
| CCCCC/C=C\C/C=C\CCCCCC1OC(CCN(C)C)OC1CCCCC/C=C\C/C=C\CCCCC (stereo not drawn) [Lipid 6, (2-{4,5-Bis [(6Z,9Z)-pentadeca-6,9-dien-1-yl]-1,3-dioxolan-2-yl}ethyl)dimethylamine] | 98.825 | 91.175 | 30.63 | 8.87 | 13.16 | 18.09 |
| CCCCCCCC/C=C/CCCCCCCC1OC(CCN(C)C)OC1CCCCCCCCCCCCCCCCC (stereo not drawn) [Lipid 7, (2-{4-[(8E)-heptadec-8-en-1-yl]-5-heptadecyl-1,3-dioxolan-2-yl}ethyl)dimethylamine] | 116 | 124.85 | 2.58 | 2.29 | 0.06 | 0.02 |
| CCCCCCCC/C=C\CCCCCCCC1OC(CCN(C)C)OC1CCCCCCCCCCCCCCCCC (stereo not drawn) [Lipid 8, (2-{4-[(8Z)-Heptadec-8-en-1-yl]-5-heptadecyl-1,3-dioxolan-2-yl}ethyl)dimethylamine] | 135.075 | 146.35 | 67.32 | 74.04 | 2.26 | 0.37 |
| CCCCC/C=C/C/C=C/CCCCCCCC1OC(CCN(C)C)OC1CCCCCCC/C=C/C/C=C/CCCCC (stereo not drawn) [Lipid 9, (2-{4,5-Bis [(8E,11E)-heptadeca-8,11-dien-1-yl]-1,3-dioxolan-2-yl}ethyl)dimethylamine] | 105 | 101.525 | 84.41 | 66.39 | 15.29 | 10 |
| CCCCC/C=C\C/C=C\CCCCCCCC1OC(CCCN(C)C)OC1CCCCCCC/C=C\C/C=C\CCCCC (stereo not drawn) [Lipid 11] | 122.675 | 109.475 | 93.59 | 95.87 | 70.3 | 65.07 |

— patent US20240390284A1, “IONIZABLE LIPIDS” (BRISTOL-MYERS SQUIBB COMPANY, priority 2023, published 2024)
